Columns and labels:
[1] = system: normal human dermal fibroblasts (ring-shaped tissue constructs); test: Tensile mechanical testing to failure of ring-shaped tissue constructs; assay type: cell-based
Procedure: (§1) Cell Source and Culture Conditions: Juvenile normal human dermal fibroblasts (jNHDF) were purchased from PromoCell (Heidelberg, Germany). Cells were expanded in Dulbecco's Modified Eagle's medium (DMEM) with high glucose, 1-glutamine, phenol red, and sodium pyruvate (11995065, Thermo Fisher Scientific, Waltham, MA) supplemented with 10% FBS and 1% penicillin/streptomycin at 10% CO2 and 37° C. Cells were passaged (P3-8) and expanded using a standard trypsin protocol. Cells were rinsed with 1× PBS (SH30256.FS, Thomas Scientific, Swedesboro, NJ), exposed to 0.05% trypsin in PBS for 4 min, quenched with serum containing media, centrifuged at 220g for 3 min, resuspended, counted, and plated at a density of 3.5-7.0×10^3 cells per cm^2. Ring-shaped tissue constructs (5 mm) were seeded at 3×10^5 cells per well in 1 mL of media exchanged every 2/3 days unless otherwise noted. For media composition experiments, tissues were cultured in serum-free DMEM supplemented with 0.1 mm 2-phospho-l-ascorbic acid trisodium salt (SigmaAldrich, St. Louis, MO), 50.0 μg mL^−1 I-proline (Thermo Fisher), 1% penicillin/streptomycin (SFM+), advanced DMEM (12491015) supplemented with 4 mm GlutaMax and 1% penicillin/streptomycin (SFMA), or a 50:50 mixture of the two (50:50 SFM+/SFMA).
Fabrication of Ring-Shaped Tissue Constructs: Ring-shaped molds were designed usingCADsoftware (SolidWorks Corporation, Concord, MA) and fabricated from stainless steel 316 L on a CNC lathe (Protolabs, Maple Plain, MN). The stainless steel parts were designed to fit into a single well of a standard 24 well plate. Ring-shaped agarose gels were cast by placing the stainless steel part into a well filled with 1.5 mL of molten, sterile 2% (w/v) agarose (BP160-500, Fisher Scientific, Hampton, NH) in 1× PBS, allowed to harden for 15 min, and removed. […] A lid mirroring a standard 24 well plate lid was fabricated out of aluminum with through holes above each well to permit the placement of all 24 stainless steel parts simultaneously. Gels were equilibrated in serum-free DMEM with 1% penicillin/streptomycin at 37° C., 10% CO2 for at least 24 h before use.
Drug Treatment: For all dose-response experiments, ring constructs were allowed to form for 24 h prior to treatment. FBS (12483020, Life Technologies, Carlsbad, CA), Y-27632 (S1049, Selleck Chemicals, Houston, TX), TGF-β1 (7754-BH-25, […]), and SB-431542 (S1067, Selleck Chemicals) doses were freshly prepared from frozen aliquots and resuspended in 50:50 SFM+/SFMA medium prior to feeding 3× per week. Doses of FBS were prepared at 10%, 1.0%, and 0.1% [v/v] concentrations with a 0% control. Y-27632 and SB-431542 were reconstituted in dimethyl sulfoxide (DMSO) and resuspended at a final concentration of 10, 1.0, 0.1, and a 0 μm vehicle control with a DMSO final volume always less than 0.1%. TGF-β1 was reconstituted in 0.1% bovine serum albumin (BSA) in 4 mm HCl (RB04, […]) and prepared at a final concentration of 10, 2, 0.4, and 0 ng mL^−1 vehicle control.
Mechanical Testing: Ring-shaped microtissues were mechanically tested using custom designed grippers on a uniaxial tensile testing setup (Instron 5943, Norwood, MA) equipped with a 5N (5 mn resolution) load cell. Agarose molds were trimmed with a razor blade and top and sideview brightfield images were obtained on a Nikon Eclipse Ts2 microscope (Nikon, Tokyo, Japan) to determine the initial elliptical cross-sectional area (A0). Just prior to testing, tissue constructs were gently removed from the agarose mold using forceps and mounted between grippers which consisted of two horizontal cylindrical segments with a circular diameter of 3 mm fabricated from glass filled nylon (PA614-GS, ProtoLabs). Tissues were brought to a 5 mm initial grip-to-grip distance and tests were performed in PBS at 37° C. […]

[2] = system: normal human dermal fibroblasts (ring-shaped tissue constructs); test: Collagen quantification (pepsin-acid soluble collagen, sircol dye binding assay) of ring-shaped tissue constructs; assay type: cell-based; conditions: for effect on collagen content: p>0.05
Procedure: as §1
Drug Treatment: For all dose-response experiments, ring constructs were allowed to form for 24 h prior to treatment. […]
Collagen Quantification: Tissues were homogenized with 2 mm glass beads for 2/3 min and solubilized in 0.1 mg mL^−1 pepsin in 0.5 m acetic acid at 4° C. for 48 h. Total pepsin-acid soluble collagen was quantified via sircol dye binding assay per kit instructions (S5000, Biocolor, United Kingdom). Absorbance was measured at 525 nm and collagen content was determined from a standard curve and adjusted to microgram equivalent of native pepsin-acid soluble collagen.

[3] = system: actomyosin network; conditions: disruption of the actomyosin network; cited from earlier work
[4] = highest inhibitory concentration (10.0 μM) in 50:50 media, day 7 and 14, p<0.05
[5] = 0.1, 1.0, 10.0 μM in 50:50 media from 24 h after seeding, 7 or 14 days, p>0.05
[6] = 10 ng mL^−1 TGF-β1 versus 10 μm SB431542, day 7

Molecule: NC(=O)c1ccc(-c2nc(-c3ccc4c(c3)OCO4)c(-c3ccccn3)[nH]2)cc1 [SB-431542]
- effect on tissue stiffness [1, 4]: weakest stiffness and strength
- effect on tissue strength [1, 4]: weakest stiffness and strength
- effect on collagen content ([2]; 0.1, 1.0, 10.0 μM in 50:50 media, any dose or time point): no effect

Molecule: C[C@@H](N)[C@H]1CC[C@H](C(=O)Nc2ccncc2)CC1 [Y-27632]
- effect on tissue stiffness [1, 5]: did not significantly affect
- effect on tissue strength [1, 5]: did not significantly affect
- effect on collagen content ([2]; 0.1, 1.0, 10.0 μM in 50:50 media from 24 h after seeding, 7 or 14 days): did not significantly affect

Molecule: Cc1ccc2c(c1)C(=O)C1(O)CCN(c3ccccc3)C1=N2 (stereo not drawn) [blebbistatin]
- effect on development of mechanical properties [3]: halts the development of mechanical properties

Molecule: TGF-β1: pleiotropic growth factor and proposed master mediator of fibrotic disorders
- increase in tissue stiffness, TGF-β1 stimulation versus inhibition with SB431542 [1, 6]: 4.8 fold
- increase in tissue strength, TGF-β1 stimulation versus inhibition with SB431542 [1, 6]: 6.5 fold
- effect on tissue mechanics (stiffness and strength) ([1]; 0.4, 2.0, 10 ng mL^−1 in 50:50 media, day 7 and 14, p<0.05): increased tissue mechanics in a significant dose-dependent manner
- change in collagen content ([2]; 0.4, 2.0, 10 ng mL^−1 in 50:50 media, day 7 and 14): not a concomitant change

Molecule: cytochalasin
- effect on development of mechanical properties [3]: halts the development of mechanical properties

— patent publication US12435312B2, “Quantifying cell-derived changes in collagen synthesis, alignment, and mechanics in a 3D connective tissue model” (Brown University, priority 2022, dated 2025)
